Results published in patent US10329296B2, “Indole derivatives” (Richter Gedeon Nyrt., priority 2015, dated 2019).
Where a name gives a salt, the structure may show the parent alone.

target: human MCH1 receptor (Homo sapiens, UniProt Q99705); experiment: MCHR1 antagonism functional assay, measuring cytoplasmic calcium concentration ([Ca2+]i);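 further: human MCH1 AequoScreen cells loaded with calcium-sensitive fluorescent dye, compounds preincubated one hour, then MCH given at its EC80, inhibition of ΔF/F rise relative to DMSO vehicle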
Protocol: Evaluation of MCHR1 Antagonism in Functional Assay
Cells: human MCH1 (SLC1) AequoScreen® Cell Line (Perkin Elmer ES-370-A, lot No: M4W-A2)
MCH was dissolved in MilliQ water (1 mM), aliquots were taken from the stock solution, and were kept at −20° C. One aliquot was used only once.
Assay buffer: HBSS+2 mM probenecid, pH=7.4
Measuring of Cytoplasmic Calcium Concentration ([Ca^2+]i):
On the day of measurement the culture medium was removed from the cells and a fluorescent Ca^2+-sensitive dye (FLIPR Calcium 5 kit, Molecular Devices R8186) was added to the cells at a 4× dilution compared to the recommended dilution by the manufacturer, in a volume of 100 μl/well, and cells were incubated at 37° C. for 10 min. […] The vehicle (DMSO, control treatment), or the buffer containing test compounds were added to the cells in a volume of 50 μl/well, and cells were incubated at 37° C. for further 60 min.
1 mM stock solution was made from the agonist in distilled water, this solution was distributed into aliquots, which were kept at −20° C. until use. One aliquot was used only once. Fluorescence was detected before addition of MCH for 20 s, and after addition of MCH for 40 s. MCH was applied at an EC80 concentration, the EC80-values were determined individually for every plate/experiment. For this whole MCH dose-response curves were determined on one part of the plate, 4 parameter sigmoidal curves were fitted to the experimental data by nonlinear regression, MCH EC80 values were derived from the fitted curve. The raw fluorescence data were converted into ΔF/F values (the maximum fluorescence value obtained after addition of MCH was normalized to the baseline fluorescence: ΔF/F=(Fmax−Fbaseline)/Fbaseline). […] IC50 values of the tested compounds were determined by fitting 4 parameter sigmoidal curves to inhibition % data. Data processing, including fitting curves by nonlinear regression, was done by SoftMaxPro software.

Row | SMILES | IC50
1 | O=c1cc(OCc2ccc(Cl)cn2)ccn1-c1ccc2c(c1)c(Cl)c1n2CCN(CCF)CC1 | 15.5 nM
2 | O=c1cc(OCc2ccc(Cl)cn2)ccn1-c1ccc2c(c1)cc1n2CCN(CCF)CC1 | 10 nM
3 | O=c1cc(OCc2ccc(F)cn2)ccn1-c1ccc2c(c1)cc1n2CCNCC1 [Example 1, 1-{1H,2H,3H,4H,5H-[1,4]diazepino[1,7-a]indol-9-yl}-4-[(5-fluoropyridin-2-yl)methoxy]-1,2-dihydropyridin-2-one hydrochloride salt] | 17.6 nM
4 | COc1ccc(COc2ccn(-c3ccc4c(c3)cc3n4CCNCC3)c(=O)c2)cc1 [Example 2, 1-{1H,2H,3H,4H,5H-[1.4]diazepino[1,7-a]indol-9-yl}-4-[(4-methoxyphenyl)-methoxy]-1,2-dihydropyridin-2-one hydrochloride salt] | 32.9 nM
5 | O=c1cc(OCc2ccccc2)ccn1-c1ccc2c(c1)cc1n2CCNCC1 [Example 3, 4-(benzyloxy)-1-{1H,2H,3H,4H,5H-[1,4]diazepino[1,7-a]indol-9-yl}-1,2-dihydropyridin-2-one maleic acid salt] | 17.7 nM
6 | O=c1cc(OCc2ccc(Cl)cn2)ccn1-c1ccc2c(c1)cc1n2CCNCC1 [Example 4, 4-[(5-chloropyridin-2-yl)methoxy]-1-{1H,2H,3H,4H,5H-[1,4]diazepino[1,7-a]indol-9-yl}-1,2-dihydropyridin-2-one dihydrochloride salt] | 9.8 nM
7 | O=c1cc(OCc2ccc(F)cc2)ccn1-c1ccc2c(c1)cc1n2CCNCC1 [Example 5, 1-{1H,2H,3H,4H,5H-[1,4]diazepino[1,7-a]indol-9-yl}-4-[(4-fluorophenyl)methoxy]-1,2-dihydropyridin-2-one hydrochloride salt] | 12 nM
8 | O=c1cc(OCc2ccc(Cl)cc2)ccn1-c1ccc2c(c1)cc1n2CCNCC1 [Example 6, 4-[(4-chlorophenyl)methoxy]-1-{1H,2H,3H,4H,5H-[1,4]diazepino[1,7-a]indol-9-yl}-1,2-dihydropyridin-2-one hydrochloride salt] | 11.9 nM
9 | O=c1cc(OCc2ccccc2F)ccn1-c1ccc2c(c1)cc1n2CCNCC1 [Example 7, 1-{1H,2H,3H,4H,5H-[1,4]diazepino[1,7-a]indol-9-yl}-4-[(2-fluorphenyl)methoxy]-1,2-dihydropyridin-2-one hydrochloride salt] | 27.7 nM
10 | O=c1cc(OCc2ccc(C(F)(F)F)cc2)ccn1-c1ccc2c(c1)cc1n2CCNCC1 [Example 8, 1-{1H,2H,3H,4H,5H-[1,4]diazepino[1,7-a]indol-9-il}-4-{[4-(trifluoromethyl)phenyl]methoxy}-1,2-dihydropyridin-2-one hydrochloride salt] | 123 nM
11 | CN1CCc2cc3cc(-n4ccc(OCc5ccc(F)cn5)cc4=O)ccc3n2CC1 [Example 9, 4-[(5-fluoropyridin-2-yl)methoxy]-1-{3-methyl-1H,2H,3H,4H,5H-[1,4]diazepino[1,7-a]indol-9-yl}-1,2-dihydropyridin-2-one maleic acid salt] | 14.9 nM
12 | CN1CCc2cc3cc(-n4ccc(OCc5ccccc5)cc4=O)ccc3n2CC1 [Example 10, 4-(benzyloxy)-1-{3-methyl-1H,2H,3H,4H,5H-[1,4]diazepino[1,7-a]indol-9-yl}-1,2-dihydropyridin-2-one hydrochloride salt] | 9.2 nM
13 | CN1CCc2cc3cc(-n4ccc(OCc5ccc(Cl)cn5)cc4=O)ccc3n2CC1 [Example 11, 4-[(5-chloropyridin-2-yl)methoxy]-1-{3-methyl-1H,2H,3H,4H,5H-[1,4]diazepino[1,7-a]indol-9-yl}-1,2-dihydropyridin-2-one] | 9.6 nM
14 | CN1CCc2cc3cc(-n4ccc(OCc5ccc(Cl)cc5)cc4=O)ccc3n2CC1 [Example 12, 4-[(4-chlorophenol)methoxy]-1-{3-methyl-1H,2H,3H,4H,5H-[1,4]diazepino[1,7-a]indol-9-yl}-1,2-dihydropyridin-2-one maleic acid salt] | 9 nM
15 | CCN1CCc2cc3cc(-n4ccc(OCc5ccc(OC)cc5)cc4=O)ccc3n2CC1 [Example 14, 1-{3-ethyl-1H,2H,3H,4H,5H-[1,4]diazepino[1,7-a]indol-9-yl}-4-[(4-methoxyphenyl)methoxy]-1,2-dihydropyridin-2-one] | 7.9 nM
16 | CCN1CCc2cc3cc(-n4ccc(OCc5ccc(Cl)cn5)cc4=O)ccc3n2CC1 [Example 15, 4-[(5-chloropyridin-2-yl)methoxy]-1-{3-etil-1H,2H,3H,4H,5H-[1,4]diazepino[1,7-a]indol-9-yl}-1,2-dihydropyridin-2-one] | 6.5 nM
17 | CCN1CCc2cc3cc(-n4ccc(OCc5ccc(F)cc5)cc4=O)ccc3n2CC1 [Example 16, 1-{3-ethyl-1H,2H,3H,4H,5H-[1,4]diazepino[1,7-a]indol-9-yl}-4-[(4-fluorophenyl)methoxy]-1,2-dihydropyridin-2-one] | 7.2 nM

Row | SMILES | IC50
18 | CC(=O)N1CCc2cc3cc(-n4ccc(OCc5ccc(Cl)cn5)cc4=O)ccc3n2CC1 [Example 17, 1-{3-acetyl-1H,2H,3H,4H,5H-[1,4]diazepino[1,7-a]indol-9-yl}-4-[(5-chloropyridin-2-yl)methoxy]-1,2-dihydropyridin-2-one] | 18.9 nM
19 | CC(C)N1CCc2cc3cc(-n4ccc(OCc5ccc(F)cn5)cc4=O)ccc3n2CC1 [Example 18, 4-[(5-fluoropyridin-2-yl)methoxy]-1-[3-(propan-2-yl)-1H,2H,3H,4H,5H-[1,4]diazepino[1,7-a]indol-9-yl]-1,2-dihydropyridin-2-one maleic acid salt] | 15.2 nM
20 | CC(C)N1CCc2cc3cc(-n4ccc(OCc5ccccc5)cc4=O)ccc3n2CC1 [Example 19, 4-(benzyloxy)-1-[3-(propan-2-yl)-1H,2H,3H,4H,5H-[1,4]diazepino[1,7-a]indol-9-yl]-1,2-dihydropyridin-2-one hydrochloride salt] | 8.2 nM
21 | CC(C)N1CCc2cc3cc(-n4ccc(OCc5ccc(Cl)cn5)cc4=O)ccc3n2CC1 [Example 20, 4-[(5-chloropyridin-2-yl)methoxy]-1-[3-(propan-2-yl)-1H,2H,3H,4H,5H-[1,4]diazepino[1,7-a]indol-9-yl]-1,2-dihydropyridin-2-one maleic acid salt] | 6.2 nM
22 | CC(C)N1CCc2cc3cc(-n4ccc(OCc5ccc(F)cc5)cc4=O)ccc3n2CC1 [Example 21, 4-[(4-fluorophenyl)methoxy]-1-[3-(propan-2-yl)-1H,2H,3H,4H,5H-[1,4]diazepino[1,7-a]indol-9-yl]-1,2-dihydropyridin-2-one] | 8 nM
23 | CC(C)N1CCc2cc3cc(-n4ccc(OCc5ccc(Cl)cc5)cc4=O)ccc3n2CC1 [Example 22, 4-[(4-chlorophenyl)methoxy]-1-[3-(propan-2-yl)-1H,2H,3H,4H,5H-[1,4]diazepino[1,7-a]indol-9-yl]-1,2-dihydropyridin-2-one maleic acid salt] | 7.2 nM
24 | CC(C)N1CCc2cc3cc(-n4ccc(OCc5ccccc5F)cc4=O)ccc3n2CC1 [Example 23, 4-[(2-fluorophenyl)methoxy]-1-[3-(propan-2-yl)-1H,2H,3H,4H,5H-[1,4]diazepino[1,7-a]indol-9-yl]-1,2-dihydropyridin-2-one hydrochloride salt] | 15.7 nM
25 | CC(C)N1CCc2c(Cl)c3cc(-n4ccc(OCc5ccc(Cl)cn5)cc4=O)ccc3n2CC1 [Example 24, 1-[11-chloro-3-(propan-2-yl)-1H,2H,3H,4H,5H-[1,4]diazepino[1,7-a]indol-9-yl]-4-[(5-chloropyridin-2-yl)methoxy]-1,2-dihydropyridin-2-one maleic acid salt] | 18.5 nM
26 | CC(C)N1CCc2c(Br)c3cc(-n4ccc(OCc5ccc(Cl)cn5)cc4=O)ccc3n2CC1 [Example 25, 1-[11-bromo-3-(propan-2-yl)-1H,2H,3H,4H,5H-[1,4]diazepino[1,7-a]indol-9-yl]-4-[(5-chloropyridin-2-yl)methoxy]-1,2-dihydropyridin-2-one maleic acid salt] | 30.7 nM
27 | CC(C)N1CCc2c(I)c3cc(-n4ccc(OCc5ccc(Cl)cn5)cc4=O)ccc3n2CC1 [Example 26, 4-[(5-chloropyridin-2-yl)methoxy]-1-[11-iodo-3-(propan-2-yl)-1H,2H,3H,4H,5H-[1,4]diazepino[1,7-a]indol-9-yl]-1,2-dihydropyridin-2-one maleic acid salt] | 38.8 nM
28 | CC(C)N1CCc2c(Cl)c3cc(-n4ccc(OCc5ccccc5)cc4=O)ccc3n2CC1 [Example 27, 4-(benzyloxy)-1-[11-chloro-3-(propan-2-yl)-1H,2H,3H,4H,5H-[1,4]diazepino[1,7-a]indol-9-yl]-1,2-dihydropyridin-2-one hydrochloride salt] | 29.9 nM
29 | O=c1cc(OCc2ccc(Cl)cn2)ccn1-c1ccc2c(c1)cc1n2CCN(CC2CC2)CC1 [Example 28, 4-[(5-chloropyridin-2-yl)methoxy]-1-[3-(cyclopropylmethyl)-1H,2H,3H,4H,5H-[1,4]diazepino[1,7-a]indol-9-yl]-1,2-dihydropyridin-2-ond maleic acid salt] | 6.2 nM
30 | O=c1cc(OCc2ccccc2)ccn1-c1ccc2c(c1)cc1n2CCN(C2CC2)CC1 [Example 29, 4-(benzyloxy)-1-{3-cyclopropyl-1H,2H,3H,4H,5H-[1,4]diazepino[1,7-a]indol-9-yl}-1,2-dihydropyridin-2-one maleic acid salt] | 12.9 nM
31 | O=c1cc(OCc2ccc(Cl)cn2)ccn1-c1ccc2c(c1)cc1n2CCN(C2CC2)CC1 [Example 30, 4-[(5-chloropyridin-2-yl)methoxy]-1-{3-cyclopropyl-1H,2H,3H,4H,5H-[1,4]diazepino[1,7-a]indol-9-yl}-1,2-dihydropyridin-2-one maleic acid salt] | 17.2 nM
32 | O=c1cc(OCc2ccc(Cl)cn2)ccn1-c1ccc2c(c1)cc1n2CCN(C2CCC2)CC1 [Example 31, 4-[(5-chloropyridin-2-yl)methoxy]-1-(3-cyclobutyl-1H,2H,3H,4H,5H-[1,4]diazepino[1,7-a]indol-9-yl)-1,2-dihydropyridin-2-one maleic acid salt] | 12.3 nM
33 | Cc1c2n(c3ccc(-n4ccc(OCc5ccc(Cl)cn5)cc4=O)cc13)CCN(C(C)C)CC2 [Example 34, 4-[(5-chloropyridin-2-yl)methoxy]-1-[11-methyl-3-(propan-2-yl)-1H,2H,3H,4H,5H-[1,4]diazepino[1,7-a]indol-9-yl]-1,2-dihydropyridin-2-one maleic acid salt] | 14.3 nM
